How the values were obtained:
Type in all cases: cell-based, Mycobacterium tuberculosis
[1] = test system: M. tuberculosis c subunit mutant strain D28A
[2] = test system: M. tuberculosis c subunit mutant strain A63P
[3] = test system: M. tuberculosis c subunit mutant strain D28V
[4] = test system: M. tuberculosis c subunit mutant strain D28G
[5] = test system: M. tuberculosis c subunit mutant strain E61D
[6] = test system: M. tuberculosis c subunit mutant strain I66M
M. tuberculosis H37Rv = test system: M. tuberculosis H37Rv

| Structure (SMILES) | MIC90 fold increase in M. tuberculosis c subunit mutant strain D28A [1] [fold] | MIC90 fold increase in M. tuberculosis c subunit mutant strain A63P [2] [fold] | MIC90 fold increase in M. tuberculosis c subunit mutant strain D28V [3] [fold] | MIC90 fold increase in M. tuberculosis c subunit mutant strain D28G [4] [fold] | MIC90 fold increase in M. tuberculosis c subunit mutant strain E61D [5] [fold] | MIC90 fold increase in M. tuberculosis c subunit mutant strain I66M [6] [fold] | Mutation frequency (M. tuberculosis H37Rv) | No. of atpE mutants/total no. of mutants isolated (M. tuberculosis H37Rv) |
| --- | --- | --- | --- | --- | --- | --- | --- | --- |
| COc1nc2ccc(Br)cc2cc1[C@@H](c1ccccc1)[C@@](O)(CCN(C)C)c1cccc2ccccc12 [BDQ, Bedaquiline, reference compound] | >400 | >400 | >400 | >400 | 312 | 262 |  |  |
| COc1cc([C@](O)(CCN(C)C)[C@@H](c2cc3cc(Br)ccc3nc2OC)c2cc(OC)nc(OC)c2OC)cc(OC)n1 [TBAJ-876] | 140 | 48 | 132 | 104 | 100 | 59 | 4.23 × 10^−9 | 5/5 |
| COc1cc([C@](O)(CCN(C)C)[C@@H](c2cc3cc(Br)ccc3nc2OC)c2cccc3c2OCCO3)cc(OC)n1 [compound 5316] | 200 | 72 | 200 | 200 | 105 | 42 | 6.36 × 10^−9 | 7/7 |
| COc1cc([C@](O)(CCN(C)C)[C@H](c2cc(OC(C)C)cnc2OC)c2cc3cc(Br)ccc3nc2OC)cc(OC)n1 [compound 5366] | 333 | 50 | 250 | 300 | 45 | 50 | 2.54 × 10^−8 | 28/28 |
| COc1cc([C@](O)(CCN(C)C)[C@@H](c2cc3cc(Br)ccc3nc2OC)c2ccnc(OC)c2OC)cc(OC)n1 [compound 5307] | 357 | 150 | 360 | 235 | 100 | 87 | 3.00 × 10^−8 | 33/34 |

From article PMC6761534 (Antimicrobial Agents and Chemotherapy, 2019)
